Values joined by “and” are separate entries in the source; they are usually repeats but may differ in a detail not shown here. Equal values may be shown once. Inconclusive results and toxic doses are left out.
Test system: BDF1 mice, M5076 sarcoma ip, median survival T/C
Experiment: NCI In Vivo Anticancer Drug Screen. Data for tumor model Sarcoma M5076 (intraperitoneal) in B6D2F1 (BDF1) mice
Conditions: endpoint: median survival time, higher = longer survival
Description: The antitumor activity of compounds was measured in mice bearing transplantable tumors. Survival or tumor size were measured and the results are expressed as the measurement made in the treated group (T) divided by the measurement made in the vehicle treated control group (C). The tumor model used in this assay is Sarcoma M5076 (intraperitoneal) in B6D2F1 (BDF1) mice

[1] = dose: 3.12 mg/kg/injection, schedule: Q01DX009 (ip), vehicle: Klucel (hydroxypropylcellulose) (HPC)
[2] = dose: 6.25 mg/kg/injection, schedule: Q01DX009 (ip), vehicle: Klucel (hydroxypropylcellulose) (HPC)
[3] = dose: 12.5 mg/kg/injection, schedule: Q01DX009 (ip), vehicle: Klucel (hydroxypropylcellulose) (HPC)
[4] = dose: 40.0 mg/kg/injection, schedule: Q04DX005 (ip), vehicle: Klucel (hydroxypropylcellulose) (HPC)
[5] = dose: 80.0 mg/kg/injection, schedule: Q04DX005 (ip), vehicle: Klucel (hydroxypropylcellulose) (HPC)
[6] = dose: 12.5 mg/kg/injection, schedule: Q04DX004 (ip), vehicle: saline with Tween-80
[7] = dose: 25.0 mg/kg/injection, schedule: Q04DX004 (ip), vehicle: saline with Tween-80
[8] = dose: 50.0 mg/kg/injection, schedule: Q04DX004 (ip), vehicle: saline with Tween-80
[9] = dose: 100.0 mg/kg/injection, schedule: Q04DX004 (ip), vehicle: saline with Tween-80
[10] = dose: 200.0 mg/kg/injection, schedule: Q04DX004 (ip), vehicle: saline with Tween-80

With `COc1cc(NCc2ccc3nc(N)nc(N)c3c2C)cc(OC)c1OC` (tested in a mixture with another compound) the T/C (dose: 10.0 mg/kg/injection, schedule: Q04DX005 (ip), vehicle: water) was 108 % of control and the T/C (dose: 40.0 mg/kg/injection, schedule: Q04DX005 (ip), vehicle: water) was 120 % of control.
In the case of `COc1cc2c(cc1OC)[C@@H]1C(=O)c3ccc4c(c3O[C@@H]1CO2)C[C@H](C(C)C)O4`, the T/C (dose: 1.56 mg/kg/injection, schedule: Q01DX009 (ip), vehicle: Klucel (hydroxypropylcellulose) (HPC)) is reported as 112 % of control and 114 % of control, the T/C [1] is reported as 110 % of control and the T/C [2] is reported as 122 % of control. For the same compound, the T/C [3] was 124 % of control.
In the case of `NC1=NC(O)C=C1` (stereo not drawn), the T/C (dose: 3.12 mg/kg/injection, schedule: Q01DX009 (ip), vehicle: saline) is reported as 118 % of control, the T/C (dose: 20.0 mg/kg/injection, schedule: Q01DX009 (ip), vehicle: saline) is reported as 152 % of control and the T/C (dose: 25.0 mg/kg/injection, schedule: Q01DX009 (ip), vehicle: saline) is reported as 160 % of control. For the same compound, the T/C (dose: 40.0 mg/kg/injection, schedule: Q01DX009 (ip), vehicle: saline) was 152 % of control and the T/C (dose: 50.0 mg/kg/injection, schedule: Q01DX009 (ip), vehicle: saline) was 178 % of control.
`CC(=O)OCC1OC(n2ncc(=O)[nH]c2=O)C(OC(C)=O)C1OC(C)=O` (stereo not drawn) was tested, and the T/C (dose: 150.0 mg/kg/injection, schedule: Q04DX004 (ip), vehicle: Klucel (hydroxypropylcellulose) (HPC)) was 102 % of control, the T/C (dose: 300.0 mg/kg/injection, schedule: Q04DX004 (ip), vehicle: Klucel (hydroxypropylcellulose) (HPC)) was 102 % of control and the T/C (dose: 600.0 mg/kg/injection, schedule: Q04DX004 (ip), vehicle: Klucel (hydroxypropylcellulose) (HPC)) was 102 % of control. The T/C (dose: 1200.0 mg/kg/injection, schedule: Q04DX004 (ip), vehicle: Klucel (hydroxypropylcellulose) (HPC)) was 87 % of control.
With `Nc1nc2c(c(=O)[nH]1)N(C=O)C(CNc1ccc(C(=O)N[C@@H](CCC(=O)O)C(=O)O)cc1)CN2` (stereo partly drawn) the T/C (dose: 50.0 mg/kg/injection, schedule: Q01DX009 (ip), vehicle: sodium bicarbonate) was 96 % of control, the T/C (dose: 100.0 mg/kg/injection, schedule: Q01DX009 (ip), vehicle: sodium bicarbonate) was 86 % of control and the T/C (dose: 200.0 mg/kg/injection, schedule: Q01DX009 (ip), vehicle: sodium bicarbonate) was 94 % of control.
For `COC1=C(C)C(=O)C2=C(C1=O)C(CO)N1C(C#N)C3CC4C(C1C2N1CCOC41)N3C` (stereo not drawn), the T/C (dose: 0.06 mg/kg/injection, schedule: Q01DX009 (ip), vehicle: saline + alcohol) was 116 % of control, the T/C (dose: 0.13 mg/kg/injection, schedule: Q01DX009 (ip), vehicle: saline + alcohol) was 95 % of control and the T/C (dose: 0.25 mg/kg/injection, schedule: Q01DX009 (ip), vehicle: saline + alcohol) was 98 % of control. For the same compound, the T/C (dose: 0.5 mg/kg/injection, schedule: Q01DX009 (ip), vehicle: saline + alcohol) was 103 % of control, the T/C (dose: 1.0 mg/kg/injection, schedule: Q01DX009 (ip), vehicle: saline + alcohol) was 122 % of control and the T/C (dose: 62.5 micrograms/kg/injection, schedule: Q01DX009 (ip), vehicle: acid diluted with saline) was 107 % of control. For the same compound, the T/C (dose: 125.0 micrograms/kg/injection, schedule: Q01DX009 (ip), vehicle: acid diluted with saline) was 96 % of control, the T/C (dose: 250.0 micrograms/kg/injection, schedule: Q01DX009 (ip), vehicle: acid diluted with saline) was 96 % of control and the T/C (dose: 500.0 micrograms/kg/injection, schedule: Q01DX009 (ip), vehicle: acid diluted with saline) was 109 % of control.
With `CN(C)c1nc(N(C)C)nc(N(C)C)n1` the T/C [4] was 160 % of control, the T/C [5] was 188 % of control and the T/C (dose: 100.0 mg/kg/injection, schedule: Q04DX005 (ip), vehicle: Klucel (hydroxypropylcellulose) (HPC)) was 112 % of control. The T/C (dose: 160.0 mg/kg/injection, schedule: Q04DX005 (ip), vehicle: Klucel (hydroxypropylcellulose) (HPC)) was 104 % of control, the T/C (dose: 200.0 mg/kg/injection, schedule: Q04DX005 (ip), vehicle: Klucel (hydroxypropylcellulose) (HPC)) was 119 % of control and the T/C (dose: 400.0 mg/kg/injection, schedule: Q04DX005 (ip), vehicle: Klucel (hydroxypropylcellulose) (HPC)) was 123 % of control.
With `COc1cc(C)c(C2NC(=O)c3ccccc3N2)cc1C` (stereo not drawn) the T/C [6] was 102 % of control, the T/C [7] was 102 % of control and the T/C [8] was 90 % of control. The T/C [9] was 105 % of control and the T/C [10] was 124 % of control.
In the case of `C/C(=N\NC(=S)N1CC2CCC(CC2)C1)c1nccs1`, the T/C [6] is reported as 107 % of control and the T/C [7] is reported as 106 % of control.
In the case of `CCOC(=O)C(N)CSC(=O)NC` (stereo not drawn), the T/C (dose: 75.0 mg/kg/injection, schedule: Q04DX004 (ip), vehicle: saline) is reported as 103 % of control, the T/C (dose: 150.0 mg/kg/injection, schedule: Q04DX004 (ip), vehicle: saline) is reported as 109 % of control and the T/C (dose: 300.0 mg/kg/injection, schedule: Q04DX004 (ip), vehicle: saline) is reported as 110 % of control. The T/C (dose: 600.0 mg/kg/injection, schedule: Q04DX004 (ip), vehicle: saline) was 178 % of control.
With `CC(=O)OCc1cc(=O)n(C)c2c3c4c(cc12)c(C)cc(=O)n4CO3` the T/C (dose: 4.0 mg/kg/injection, schedule: Q01DX009 (ip), vehicle: Klucel (hydroxypropylcellulose) (HPC)) was 102 % of control, the T/C (dose: 5.0 mg/kg/injection, schedule: Q04DX005 (ip), vehicle: Klucel (hydroxypropylcellulose) (HPC)) was 102 % of control and the T/C (dose: 8.0 mg/kg/injection, schedule: Q01DX009 (ip), vehicle: Klucel (hydroxypropylcellulose) (HPC)) was 100 % of control. The T/C (dose: 10.0 mg/kg/injection, schedule: Q04DX005 (ip), vehicle: Klucel (hydroxypropylcellulose) (HPC)) was 100 % of control, the T/C (dose: 16.0 mg/kg/injection, schedule: Q01DX009 (ip), vehicle: Klucel (hydroxypropylcellulose) (HPC)) was 99 % of control and the T/C (dose: 20.0 mg/kg/injection, schedule: Q01DX009 (ip), vehicle: Klucel (hydroxypropylcellulose) (HPC)) was 165 % of control. For the same compound, the T/C (dose: 20.0 mg/kg/injection, schedule: Q04DX005 (ip), vehicle: Klucel (hydroxypropylcellulose) (HPC)) was 116 % of control and 118 % of control, the T/C (dose: 32.0 mg/kg/injection, schedule: Q01DX009 (ip), vehicle: Klucel (hydroxypropylcellulose) (HPC)) was 99 % of control and the T/C (dose: 40.0 mg/kg/injection, schedule: Q01DX009 (ip), vehicle: Klucel (hydroxypropylcellulose) (HPC)) was 179 % of control. For the same compound, the T/C [4] was 102 % of control, the T/C (dose: 64.0 mg/kg/injection, schedule: Q01DX009 (ip), vehicle: Klucel (hydroxypropylcellulose) (HPC)) was 103 % of control and the T/C [5] was 92 % of control and 95 % of control.
In the case of `CCC/C=C/C=C/C(=O)OC1/C(=C/C(=O)OC)CC2CC(C(C)O)OC(=O)CC(O)CC3CC(OC(C)=O)C(C)(C)C(O)(CC4C/C(=C/C(=O)OC)CC(/C=C/C(C)(C)C1(O)O2)O4)O3` (stereo not drawn), the T/C (dose: 20.0 micrograms/kg/injection, schedule: Q01DX009 (ip), vehicle: saline + Tween-80 + alcohol) is reported as 158 % of control, the T/C (dose: 40.0 micrograms/kg/injection, schedule: Q01DX009 (ip), vehicle: saline + Tween-80 + alcohol) is reported as 168 % of control and the T/C (dose: 80.0 micrograms/kg/injection, schedule: Q01DX009 (ip), vehicle: saline + Tween-80 + alcohol) is reported as 160 % of control.
`COC(=O)C1=C2Nc3ccccc3C23CCN2C(O)C4(CC5CC67CCOC6CCN6CCC8(c9cccc(OC)c9N(C4)C58O)C67)C4OCCC4(C1)C23` (stereo not drawn) was tested, and the T/C [1] was 102 % of control, the T/C [2] was 100 % of control and the T/C [3] was 106 % of control. For the same compound, the T/C (dose: 25.0 mg/kg/injection, schedule: Q01DX009 (ip), vehicle: Klucel (hydroxypropylcellulose) (HPC)) was 99 % of control and the T/C (dose: 50.0 mg/kg/injection, schedule: Q01DX009 (ip), vehicle: Klucel (hydroxypropylcellulose) (HPC)) was 104 % of control.
With `CC(/C=N/N=C(N)N)=N\N=C(N)N` the T/C (dose: 32.4 mg/kg/injection, schedule: Q04DX005 (ip), vehicle: saline) was 110 % of control, the T/C (dose: 54.0 mg/kg/injection, schedule: Q04DX005 (ip), vehicle: saline) was 96 % of control and the T/C (dose: 90.0 mg/kg/injection, schedule: Q04DX005 (ip), vehicle: saline) was 110 % of control.
For `COC(=O)Nc1ccc(Cc2ccc(NC(=O)OC)cc2)cc1`, the T/C [8] was 89 % of control, the T/C [9] was 103 % of control and the T/C [10] was 118 % of control. For the same compound, the T/C (dose: 400.0 mg/kg/injection, schedule: Q04DX004 (ip), vehicle: saline with Tween-80) was 185 % of control.
In the case of `COC1C(O)CC(OC2CC(Oc3cc4cc5c(c(O)c4c(O)c3C)C(=O)[C@@H](OC3CC(OC4CC(OC6CC(C)(O)C(OC(C)=O)C(C)O6)C(O)C(C)O4)C(O)C(C)O3)[C@H]([C@H](OC)C(=O)[C@@H](O)[C@@H](C)O)C5)OC(C)C2OC(C)=O)OC1C` (stereo partly drawn), the T/C (dose: 37.5 micrograms/kg/injection, schedule: Q01DX009 (ip), vehicle: water) is reported as 168 % of control and the T/C (dose: 75.0 micrograms/kg/injection, schedule: Q01DX009 (ip), vehicle: water) is reported as 163 % of control.
